The values that follow come from patent publication US4990499A, “Anti-herpes simplex virus activity of 5-alkoxymethyl-2'-deoxycytidimes and their 5-monophosphates” (priority 1989, dated 1991).

The structures appear in SMILES notation. Where only a bound is given, the exact number is not on record here.

Format in all cases: cell-based
For experiment [1], the system named is Herpes simplex virus type 1 (HSV-1). The experiment can be described thus: Antiviral activity against HSV-1, viral plaque reduction (ED50). The conditions noted are these: FIG. 13; HSV-1 KOS and 76, Vero, 20 PFU.
For experiment [2] the test system is unchanged. The description is as above. To be noted: for reversal of antiviral activity of MMdCyd, order of potency: FIGS. 4 to 6. The method, then:
(§1) Infected cells were treated with different concentrations of MMdCyd and the concentration required to reduce viral plaque formation by 50%, i.e. ED50, was determined.
(§2) ^a ED50 : Concentration required to reduce viral plaque formatio
Vero cells were infected with the KOS strain of HSV-1. The compound of compounds indicated in Table 2, below, and are shown graphically in FIGS. 1, (H4 dUrd) and 2 (H4 Urd).
^a Antiviral assays were carried out using Vero cells. All compounds
were added immediately after virus infection.
(§3) The antiviral activity of MMdCyd in the presence of H4 dUrd was determined against several strains of HSV-1 and HSV-2.
Vero cells were infected with HSV-1, strain 76 and treated with MMdCyd at different times post virus infection.
The antiviral activity, ^a cyctotoxicity* and antiviral indices of MMdCyd in the presence of H4 dUrd, dGuo and H4 dUrd+dGuo were determined.
^a Antiviral assays were carried out using Vero cells. Compounds were
added immediately after virus infection. Virus HSV1, strains KOS and 76;
KOS, virus input = 50 PFU

The test system of experiment [3] is Herpes simplex virus type 2 (HSV-2). Description: Antiviral activity against HSV-2, viral plaque reduction (ED50). The conditions noted are these: HSV-2. The procedure:
as §1, §2, §3
^a Antiviral assays were carried out using Vero cells. Virus input 50
^b ED50 : Concentration required to reduce viral plaque formatio

The test system of experiment [4] is Deoxynucleoside Triphosphate (dNTP) Pools in Uninfected Vero Cells. Description: Deoxynucleoside triphosphate (dNTP) pools in uninfected (mock-infected) Vero cells. The procedure:
Vero cells were treated with MMdCyd, H4 dUrd and MMdCyd+H4 dUrd. The cells were then assayed for the presence of deoxynucleoside triphosphates. Untreated Vero cells were also assayed for the presence of deoxynucleoside triphosphates, to provide a control.
^a Cells were mock infected for one hour. Different treatments were
^b Values are means of at least two assays of triplicate cell
(§4) Vero cells and HSV-infected Vero cells were treated with dGUO and dGUO and H4 dUrd. The cells were then assayed for the presence of deoxynucleoside triphosphates. Untreated Vero cells were also assayed for the presence of deoxynucleoside triphophate to provide a control.
Vero cells were treated with N-methyl-MMdCyd. The cells were then assayed for dNTP pools.

Experiment [5] concerns Deoxynucleoside Triphosphate (dNTP) Pools in Vero Cells Infected with Herpes Simplex Virus Type 1. The experiment can be described thus: Deoxynucleoside triphosphate (dNTP) pools in HSV-1 infected Vero cells. To be noted: Table 16, HSV-1 KOS infected Vero, treatment 7 hours, ± S.E. The method, then: Example 9 was repeated, except that the Vero cells subjected to the treatment had all been infected with HSV-1 KOS strain prior to the treatment.
^a Cells were infected with 10 PFU/cell of HSV1 KOS strain for one
hour. Treatments were given for seven hours.
^a Cells were infected with 10 PFU/cell of HSV1, KOS strain after
^b H4 dUrd in MEM was added immediately after adsorption and
^c H4 dUrd in MEM was added immediately after adsorption and
as §4
^c Cells were infected with 10 PFU/cell of HSV1 strain KOS for one

Where [6] appears, read: Table 16, uninfected Vero, treatment 7 hours, ± S.E.

Broadly, the EC50 is the concentration at which the effect is half-maximal. Higher therefore signals lower potency in that assay.

On to `Nc1ncnc2c1ncn2[C@H]1C[C@H](O)[C@@H](CO)O1` [Deoxyadenosine, reference compound], for which the “effect on antiviral activity of MMdCyd” value in experiment [1] is listed as “no effect on antiherpes activity of MMdCyd”.

For the compound `COCc1cn([C@H]2C[C@H](OC(C)=O)[C@@H](COC(C)=O)O2)c(=O)nc1N` [Di-AC-MMdCyd, 5-methoxymethyl-3',5'-diacetyl-2'-deoxycytidine], in experiment [2], the EC50 amounted to 535 µM. For the same compound, in experiment [2] (vs MMdCyd, cell culture), the “potency against HSV-1 relative to parent compound (times lower)” value is “approximately 20 times”.

Consider `O=C1NC(O)CCN1[C@@H]1O[C@H](CO)[C@@H](O)[C@H]1O` (stereo partly drawn) [H4 Urd, tetrahydrouridine, reference compound], for which the “potentiation of the activity of MMdCyd (fold)” value in experiment [2] (H4 Urd with MMdCyd) is recorded as “approximately 2 fold”.

As to `COCc1cn([C@H]2C[C@H](O)[C@@H](COP(=O)(O)O)O2)c(=O)nc1N` [MMdCMP, 5-methoxymethyl-2'-deoxycytidine monophosphate], in experiment [2], the EC50 is 10 to 14 µM. The antiviral activity entry in experiment [2] (HSV-1) is reported as “potent inhibitor of HSV-1”.

In experiment [2], `Cc1cn([C@H]2C[C@H](O)[C@@H](CO)O2)c(=O)nc1N` [MedCyd, 5-methyl-2'-deoxycytidine, reference compound] showed an EC50 greater than 530 µM. Also, in experiment [2] (up to 128 μg/ml, HSV-1), the antiviral activity entry is “devoid of activity”.

For `CNc1nc(=O)n([C@H]2C[C@H](O)[C@@H](COP(=O)(O)O)O2)cc1COC` [N-Me-MMdCMP, 5-Methoxymethyl-N^4-methyl-2'-deoxycytidine-5'-monophosphate], the EC50 in experiment [2] was greater than 1800 µM. Also, the antiviral activity entry in experiment [2] (HSV-1) and in experiment [3] was “completely inert” throughout.

`CNc1nc(=O)n([C@H]2C[C@H](O)[C@@H](CO)O2)cc1COC` [N-Me-MMdCyd, 5-methoxymethyl-N4-methyl-2'-deoxycytidine] returned an EC50 in experiment [2] greater than 1800 µM. Also, the antiherpes activity result in experiment [2] (summary statement) is given as “completely devoid of antiherpes activity”. Further, the antiviral activity entry in experiment [2] (up to 1796 μM) is “devoid of antiviral activity”. In addition, in experiment [4] (setting [6]), the dATP pool was 32.2 ± 2.5 .rho. moles/10^6 cells, the dCTP pool is 17.3 ± 1.32 .rho. moles/10^6 cells, the dGTP pool is on record as 36.3 ± 1.67 .rho. moles/10^6 cells and the dTTP pool is reported as 38.6 ± 1.22 .rho. moles/10^6 cells. Besides, the “effect on dNTP pools” value in experiment [4] (Vero cells) is “did not cause perturbation of dNTP pools to any significant degree”. In experiment [5], the dATP pool was 7.4 ± 0.4 .rho. moles/10^6 cells, the dCTP pool is 18 ± 1.08 .rho. moles/10^6 cells, the dGTP pool is on record as 58.9 ± 2.22 .rho. moles/10^6 cells and the dTTP pool is 419 ± 10.6 .rho. moles/10^6 cells.

Take `Nc1ccn([C@H]2C[C@H](O)[C@@H](CO)O2)c(=O)n1` [deoxycytidine, 2'-deoxycytidine, reference compound]: the “reversal of antiviral activity of MMdCyd, order of potency” value (shortened to “reversal of antiviral activity of MMdCyd”) in experiment [2] is on record as “deoxythymidine>deoxyuridine>deoxycytidine”. In experiment [2] (equimolar concentrations, FIG. 5), the “effect on dose-response curve of MMdCyd” value is “parallel upward shift”.

As to `Cc1cn([C@H]2C[C@H](O)[C@@H](CO)O2)c(=O)[nH]c1=O` [deoxythymidine, 2'-deoxyribosylthymidine (thymidine), reference compound], the “reversal of antiviral activity of MMdCyd” value in experiment [2] was “deoxythymidine>deoxyuridine>deoxycytidine”.

For the compound `O=c1ccn([C@H]2C[C@H](O)[C@@H](CO)O2)c(=O)[nH]1` [deoxyuridine, 2'-deoxyuridine, reference compound], the “reversal of antiviral activity of MMdCyd” value in experiment [2] was “deoxythymidine>deoxyuridine>deoxycytidine”.
